The values that follow come from patent US4297357A, “N-Phenethylacetamide compounds and process for preparation thereof” (Daiichi Seiyaku Co., Ltd., priority 1978, dated 1981).

Where a name gives a salt, the structure may show the parent alone.

For orientation: inhibition in vivo means the percentage by which the read-out fell short of the control. A word on the Inhibition: it is the relative decrease from the control value, in per cent.

For data set [1], the system named is Stress Ulcer. Description: Inhibitory Effect on Stress Ulcer in Rat (Water Immersion Restraint Method). In kind it is in vivo. Conditions: water immersion restraint 21° C.; for inhibition in vivo at 100 mg/kg / inhibition in vivo at 200 mg/kg / inhibition in vivo at 400 mg/kg: Rattus norvegicus. How it is done:
In this experiment, test compounds were administered as the free base, in the form of the hydrochloric acid salts or in the form of the hydrate. | Inhibitory Effect on Stress Ulcer in Rat |Inhibitory Effect on Stress Ulcer in Rat |Inhibitory Effect on Stress Ulcer in Rat Note 2. Inhibitory effect on Stress Ulcer was examined according to Water Immersion Restraint Method disclosed in Japanese Journal of Pharmacology, Vol. 18, 9 (1968). Note 3. As test animals, seven rats weighing about 300 g were used for each dosage level. Note 4. Test compounds were injected intraperitoneally or administered orally before 30 minutes of water immersion restrain. Note 5. Test animals were immersed and restrained in water at 21° C. for 20 hours in experiment of Tables 2 and 3 and at 21° C. for 7 hours in experiment of Table 4.

The test system of data set [2] is Secretion of Gastric Acids Induced by Insuline. Description: Inhibitory effect on secretion of gastric acids induced by insuline (modified Shield's Method). In kind it is in vivo. Conditions: rat, i.v., insuline 4 ug/kg. On the procedure:
Accordingly, the compounds of this invention are very useful as a unique type of anti-ulcer agent. […] The results obtained in this experiment are shown in Table 5 and Table 6 below. |Inhibitory Effects on Secretion of Gastric Acids |Induced by Insuline (dose: 4 ug/kg, i.v.)

Data set [3] relates to Secretion of Gastric Acids Induced by Carpronium Chloride. The experiment in a line: Inhibitory effect on secretion of gastric acids induced by carpronium chloride (modified Shield's Method). Conditions: rat, i.v., carpronium chloride 8-10 μg/rat. Format: in vivo. On the procedure: Accordingly, the compounds of this invention are very useful as a unique type of anti-ulcer agent. […] The results obtained in this experiment are shown in Table 5 and Table 6 below. |Inhibitory Effects on Secretion of Gastric Acids Induced |by Carponium Chloride (dose: 8-10 μg/rat, i.v.)

A short description of data set [4]: Stability of Mixture of Hydrate with Various Kinds of Additives (one month storage), color change. In kind it is physicochemical. Set-up: key to color change: --: no color change; ±: slight color change; +: clear color change. How it is done:
(§1) It was also confirmed by thin layer chromatography that the hydrate was stable in methanol at room temperature for 48 hours. This means that it is possible to use methanol as a solvent in producing pharmaceutical preparations. It was further confirmed that a mixture of the hydrate of this invention with various kinds of additives such as carriers, diluents, etc., was stable under accelerated conditions, i.e., under high humidity at an elevated temperature for one month or under the light irradiation from 2,500 lux for one month.
Stability of Mixture of Hydrate with Various
Kinds of Additives (one month storage)
The meaning of the symbols is as follows.
Samples were prepared by well mixing 100 mg of the hydrate with 100 mg of
the additive except for magnesium stearate and talc. In case of using
magnesium stearate or talc as the additive, 10 mg of the hydrate was used

Data set [5] is described as follows: stability of hydrate in methanol by thin layer chromatography. The note with it: room temperature, 48 hours. In kind it is physicochemical. On the procedure:
as §1

Data set [6] is described as follows: isothermal absorption curve, stability of hydrate under high humidity. In kind it is physicochemical. How it is done:
as §1

In data set [7] the test system is cardiovascular system. Conditions: Pharmacometrics, Vol. 8, 835-846 (1974); cited from earlier work.
Data set [8] has as its system ulcer. Conditions: The Pharmacological Basis of Therapeutics, 4th Edition, 234 (1970); cited from earlier work.
[9] abbreviates: ip, 20 h, intraperitoneal, 100 mg/kg.

In data set [1] (setting [9]), `COc1ccc(CCNC(=O)CNc2cccc(Cl)c2)cc1OC` registered an inhibition in vivo at 100 mg/kg of 36%.

For the compound `COc1ccc(CCNC(=O)CNc2ccc(C(N)=O)cc2)cc1OC`, in data set [1] (setting [9]), the inhibition in vivo at 100 mg/kg is 20%.

On to `COc1ccc(C(N)=O)c(NCC(=O)NCCc2ccc(OC)c(OC)c2)c1`, for which at 100 mg/kg the inhibition in vivo in data set [1] (setting [9]) was 44%.

With `COc1ccc(CCNC(=O)CNc2ccc(Cl)cc2C(N)=O)cc1OC`, in data set [1] (setting [9]), 100 mg/kg produced 34% inhibition in vivo.

In data set [1] (setting [9]), `COc1ccc(CCNC(=O)CNc2ccc(Cl)c(C(N)=O)c2)cc1OC` returned an inhibition in vivo at 100 mg/kg of 35%.

`COc1ccc(CCNC(=O)CNc2cc(OC)c(C(N)=O)cc2Cl)cc1OC` had an inhibition in vivo at 100 mg/kg in data set [1] (setting [9]) of 21%.

Consider `COc1ccc(CCNC(=O)CNC(=O)c2ccccc2OC)cc1OC`, for which the inhibition in vivo at 100 mg/kg in data set [1] (setting [9]) turned out to be 50%.

In the case of `COc1ccc(CCNC(=O)CNc2cc(N)ncn2)cc1OC`, in data set [1] (setting [9]), the inhibition in vivo at 100 mg/kg worked out at 27%.

On to `CNc1nc(Cl)c(SC)c(NCC(=O)NCCc2ccc(OC)c(OC)c2)n1`, for which the inhibition in vivo at 100 mg/kg in data set [1] (setting [9]) was found to be 17%.

Turning to `COc1ccc(CCNC(=O)CNc2cccc(S(N)(=O)=O)c2)cc1OC`, at 100 mg/kg the inhibition in vivo in data set [1] (setting [9]) was 47%.

On to `COc1ccc(CCNC(=O)CNc2cc(Cl)ccc2C(N)=O)cc1OC` [Compound 1, 2-(2-carbamoyl-5-chlorophenylamino)-N-(3,4-dimethoxyphenethyl)acetamide], for which the inhibition in vivo at 100 mg/kg in data set [1] (po, 20 h, 100 mg/kg) was found to be 5%. In data set [1] (po, 20 h), the inhibition in vivo at 200 mg/kg turned out to be 17% and 400 mg/kg produced 18% inhibition in vivo. Besides, the Inhibition in data set [2] (50 mg/kg) came out at 50%. This compound also yielded an Inhibition in data set [3] (50 mg/kg) of 0%.

For the compound `COc1ccc(CCNC(=O)CNc2cccc(C(N)=O)c2)cc1OC.Cl` [Compound 2, 2-(3-carbamoylphenylamino)-N-(3,4-dimethoxyphenethyl)acetamide hydrochloride], in data set [1] (po, 20 h, 100 mg/kg), at 100 mg/kg the inhibition in vivo was 5%. Also, testing at 200 mg/kg in data set [1] (po, 20 h) gave an inhibition in vivo of 21%. This compound registered an inhibition in vivo at 400 mg/kg in data set [1] (po, 20 h) of 33%. The Inhibition stood at 80% in data set [2] (10 mg/kg), 0% in data set [3] (50 mg/kg) and 0% in data set [3] (100 mg/kg).

`COc1ccc(CCNC(=O)CNc2ccccc2)cc1OC` [Compound 3, 2-(phenylamino)-N-(3,4-dimethoxyphenethyl)acetamide hydrochloride] came in with an inhibition in vivo at 100 mg/kg in data set [1] (po, 20 h, 100 mg/kg) of 20%. In data set [1] (po, 20 h), this compound had an inhibition in vivo at 200 mg/kg of 20% and an inhibition in vivo at 400 mg/kg of 25%.

Turning to `COc1ccc(CCNC(=O)CNc2cccc(C(N)=O)c2)cc1OC` [Compound 4, 2-(3-carbamoylphenylamino)-N-(3,4-dimethoxyphenethyl)acetamide.3H2 O], the color change entry is listed as “--” in data set [4] (additive Calcium Phosphate Dibasic, one month storage, condition shown as drawing 6 (high humidity at an elevated temperature)); “--” in data set [4] (additive Calcium Phosphate Dibasic, one month, light 2500 lux); “--” in data set [4] (additive Cornstarch, one month storage, condition shown as drawing 6 (high humidity at an elevated temperature)); “--” in data set [4] (additive Cornstarch, one month, light 2500 lux); “--” in data set [4] (additive Crystalline Cellulose, one month storage, condition shown as drawing 6 (high humidity at an elevated temperature)); “--” in data set [4] (additive Crystalline Cellulose, one month, light 2500 lux). Further, the color change entry was “--” in data set [4] (additive Hydroxypropylcellulose, one month storage, condition shown as drawing 6 (high humidity at an elevated temperature)); “--” in data set [4] (additive Hydroxypropylcellulose, one month, light 2500 lux); “±” in data set [4] (additive Hydroxypropylmethylcellulose, one month storage, condition shown as drawing 6 (high humidity at an elevated temperature)); “--” in data set [4] (additive Hydroxypropylmethylcellulose, one month, light 2500 lux); “--” in data set [4] (additive Lactose, one month storage, condition shown as drawing 6 (high humidity at an elevated temperature)); “--” in data set [4] (additive Lactose, one month, light 2500 lux). Further, the color change entry is given as “--” in data set [4] (additive Macrogol 6000, one month storage, condition shown as drawing 6 (high humidity at an elevated temperature)); “--” in data set [4] (additive Macrogol 6000, one month, light 2500 lux); “--” in data set [4] (additive Magnesium Stearate, one month storage, condition shown as drawing 6 (high humidity at an elevated temperature)); “--” in data set [4] (additive Magnesium Stearate, one month, light 2500 lux); “--” in data set [4] (additive Mannitol, one month storage, condition shown as drawing 6 (high humidity at an elevated temperature)); “--” in data set [4] (additive Mannitol, one month, light 2500 lux). Further, the color change entry in data set [4] (additive Polyvinyl Alcohol, one month storage, condition shown as drawing 6 (high humidity at an elevated temperature)) was “--”; in data set [4] (additive Polyvinyl Alcohol, one month, light 2500 lux), “--”; in data set [4] (additive Sucrose, one month storage, condition shown as drawing 6 (high humidity at an elevated temperature)), “--”; in data set [4] (additive Sucrose, one month, light 2500 lux), “--”; in data set [4] (additive Talc, one month storage, condition shown as drawing 6 (high humidity at an elevated temperature)), “--”; in data set [4] (additive Talc, one month, light 2500 lux) it was “--”. The “stability of mixture with additives” value in data set [4] (in words, high humidity at an elevated temperature for one month or light irradiation from 2,500 lux for one month) is recorded as “stable”. The stability in methanol entry in data set [5] was “stable”. In data set [6] (high humidity at an elevated temperature), the “stability under high humidity” value is on record as “very stable”. In addition, in data set [6] (isothermal absorption curve), the relative critical humidity result is given as “had not relative critical humidity”. The same compound yielded an inhibition in vivo at 100 mg/kg in data set [1] (po, 7 h, 100 mg/kg) of 23%. For the same compound, the inhibition in vivo at 200 mg/kg in data set [1] (po, 7 h) was 36%. Besides, in data set [1] (po, 7 h), at 400 mg/kg the inhibition in vivo was 70%.

Regarding `NCCc1ccc(O)c(O)c1` [Dopamine, 3,4-dihydroxyphenethylamine], in data set [7], the “action on cardiovascular system” value is on record as “acts strongly on cardiovascular system”. The anti-ulcer activity result in data set [8] was “has anti-ulcer activity”.

Take `CCN1CCCC1CNC(=O)c1cc(S(N)(=O)=O)ccc1OC` (centres unmarked) [Sulpiride, N-[(1-ethyl-2-pyrrolidinyl)methyl]-2-methoxy-5-sulfamoylbenzamide, reference compound]: the inhibition in vivo at 100 mg/kg came to 27% in data set [1] (setting [9]); 29% in data set [1] (po, 7 h, 100 mg/kg); 5% in data set [1] (po, 20 h, 100 mg/kg). Also, the inhibition in vivo at 200 mg/kg came to 20% in data set [1] (po, 7 h) and 4% in data set [1] (po, 20 h). For the same compound, the inhibition in vivo at 400 mg/kg came out at 39% in data set [1] (po, 7 h) and 11% in data set [1] (po, 20 h).

`COc1ccc(CCNC(=O)CNc2ccccc2)cc1OC` [drawing 8]: at 100 mg/kg the inhibition in vivo in data set [1] (setting [9]) was 42%.

For the compound `COc1ccc(CCNC(=O)CNc2cc(Cl)ccc2C(N)=O)cc1OC` [drawing 11], the inhibition in vivo at 100 mg/kg in data set [1] (setting [9]) was determined as 38%.

In data set [1] (setting [9]), `COc1ccc(CCNC(=O)CNc2cccc(C(N)=O)c2)cc1OC` [drawing 15] gave an inhibition in vivo at 100 mg/kg of 53%.

Take `COc1ccc(CCNC(=O)CNc2cccc(C(N)=O)c2)cc1OC` [drawing 16]: in data set [1] (intraperitoneal, 100 mg/kg, 20 hours), the “Inhibitory Effect” value is 52%.
